Experimental findings from patent US20240325298A1, “COMPOSITIONS, METHODS AND SYSTEMS FOR AEROSOL DRUG DELIVERY” (AstraZeneca Pharmaceuticals LP, priority 2021, published 2024) are described below.

The nature of series [1]: NGI aerosol performance stability data after storage of the MDI (valve down, protected). It is filed as physicochemical. To be noted: stored valve down and protected at 25° C./60% RH.
Series [2] in a line: Particle size distribution by laser diffraction (optical diameter). It is filed as physicochemical. The text has this: When referred to herein, the term “optical diameter” indicates the size of a particle as measured by the Fraunhofer diffraction mode using a laser diffraction particle size analyzer equipped with a dry powder dispenser (e.g., Sympatec GmbH, Clasthal-Zellerfeld, Germany).
Suspending particles were manufactured by spray drying an emulsion of PFOB (perfluorooctyl bromide) and water stabilized by DSPC (1,2-Distearoyl-sn-Glycero-3-Phosphocholine). […] The particle size distribution of the suspending particles was determined by laser diffraction.
Active agent particles formed of budesonide, 16,17-(butylidenebis(oxy))-11,21-dihydroxy-(11-β,16-α)-pregna-1,4-diene-3,20-dione, were formed by micronizing budesonide using a jet mill. The particle size distribution of the budesonide (BD) was determined by laser diffraction.

Where [3] appears, read: budesonide/formoterol co-suspension in HFO-1234ze(E).

With `CCCCCCCCCCCCCCCCCC(=O)OC[C@H](COP(=O)([O-])OCC[N+](C)(C)C)OC(=O)CCCCCCCCCCCCCCCCC` [DSPC, 1,2-Distearoyl-sn-Glycero-3-Phosphocholine], the “stability of the aPSD” value in series [1] (setting [3]) is “stable for twelve months”.
Regarding `CCCC1O[C@@H]2C[C@H]3[C@@H]4CCC5=CC(=O)C=C[C@]5(C)[C@H]4[C@@H](O)C[C@]3(C)[C@]2(C(=O)CO)O1` (stereo partly drawn) [budesonide, 16,17-(butylidenebis(oxy))-11,21-dihydroxy-(11-β,16-α)-pregna-1,4-diene-3,20-dione], the “stability of the aPSD” value in series [1] (budesonide/albuterol co-suspension in HFO-1234ze(E)) and in series [1] (setting [3]) was “stable for twelve months” in each case.
On to `COc1ccc(CC(C)NCC(O)c2ccc(O)c(NC=O)c2)cc1.O=C(O)/C=C/C(=O)O` (racemic) [formoterol fumarate, (±)-2-hydroxy-5-[(1RS)-1-hydroxy-2-[[(1RS)-2-(4-methoxyphenyl)-1-methylethyl]-amino]ethyl]formanilide fumarate], for which, in series [2], the “optical diameter that 50% by volume of the particles are smaller than” value is reported as “smaller than 1.6 μm” and the “optical diameter that 90% by volume of the particles are smaller than” value was “smaller than 3.9 μm”.
The like results for `C[N+]1(C)CCC(OC(=O)C(O)(c2ccccc2)C2CCCC2)C1.[Br-]` (stereo not drawn) [glycopyrrolate, Pyrrolidinium, 3-((cyclopentylhydroxyphenylacetyl)oxy)-1,1-dimethyl-, bromide] were, in that order, “smaller than 2.1 μm” and “smaller than 5 μm”.
For albuterol sulfate the same measures were “smaller than 1.5 μm” and “smaller than 3.3 μm”.
